Measurements taken from patent publication US8802723B2, “Metabolic syndrome-improving agent and medicine, supplement, functional food and food additive containing the same” (ARKRAY, Inc., priority 2005, dated 2014).

Test system: VLDL secretion in HepG2 cells
Assay: VLDL secretion inhibition experiment in HepG2 cells (apoB100 ELISA)
Type: cell-based, human
Conditions: for VLDL secretion ratio (%): HepG2, 30 hours, measurement group/control group, control (DMSO) = 100, average ± standard error
Procedure: FCS, a non-essential amino acid, sodium pyruvate and a glutamine solution were mixed such that the final concentrations of the FCS, the non-essential amino acid, the sodium pyruvate and the glutamine solution respectively were 10%, 1%, 1 mM and 2 mM, and added to an MEM medium (manufactured by SIGMA). They were mixed aseptically on a clean bench. In a 100 mm/Collagen-Coated Dish (trade name, manufactured by Iwaki Glass Works, Co.), the medium of HepG2 cells (human hepatic cells) that had been cultured to 80% to 90% confluence was removed with a pipette and washed with 2 mL of 1×PBS. After adding 2 mL of trypsin-EDTA and rotating the above-noted dish slowly so that trypsin-EDTA spread over the entire cells, this trypsin-EDTA was removed with a pipette. The dish was allowed to stand still for 15 minutes in a CO2 incubator (37° C., 5%), and then 4 mL of a growth medium was added to this dish, followed by mixing by pipetting. Then, 2 mL of this mixture was added to each of two dishes to which 3 mL of a growth medium was added in advance. These dishes were covered with lids and moved crisscross so as to mix the content. The cells were checked using a microscope (manufactured by Olympus Corporation) and cultured in a CO2 incubator (37° C., 5%). Three or four days later, after checking that 80% to 90% confluence was achieved using the microscope, subculture was carried out in a similar manner, followed by cell culture.
First, a VLDL standard solution was prepared. The VLDL standard solution was prepared by diluting 1.169 mg/mL of human VLDL standard (trade name, manufactured by CHEMICON International, Inc.) with a growth medium. The dilution factors were 100, 1000, 10000, 100000 and 1000000.
A sandwich ELISA that recognized human […] in the VLDL as an antigen was used. First, 100 μL of Moab×LDL Apolipoprotein B (ApoB) (manufactured under MONOSAN®) was dispensed in each well of ELISA PLATE, and the plate was sealed with a sterile seal and then allowed to stand still at 4° C. overnight. In the following, all the dispensing mentioned is for a single well. On the next day, 200 μL of Zepto Block (trade name, manufactured by ZeptoMetrix Corporation) was dispensed, and then the above-noted plate was sealed and allowed to stand still for 2 hours at room temperature for blocking. Subsequently, 100 μL of the medium and the VLDL standard solution were dispensed, and then the above-noted plate was sealed and allowed to stand still for 1 hour at room temperature. Washing with 200 μL of PBST and absorption using an aspirator were carried out five times in total. […] 100 μL of 1M phosphoric acid solution was added to the above-noted mixture solution, and the absorbance at 450 nm was measured using wallac ARVOsx (trade name, PerkinElmer Life Sciences, PerkinElmer, Inc.). […]

**Q.** `CC(C)=CCC/C(C)=C/COc1ccc2ccc(=O)oc2c1` [Aurapten, aurapten] was tested. Which “effect on VLDL secretion (in words)” value (10-50 μM, degree of inhibition increased as concentration rose) did it give?
**A.** The value was “VLDL secretion was inhibited”.

**Q.** And the “VLDL secretion ratio (%)” value (aurapten 10 μM)?
**A.** The value was 63.1 ± 5.31%.

**Q.** And the “VLDL secretion ratio (%)” value (aurapten 20 μM)?
**A.** Its value is 61.6 ± 2.21%.

**Q.** What about the “VLDL secretion ratio (%)” value (aurapten 50 μM) of the same compound?
**A.** The value was 45.6 ± 4.04%.
